Test results as given in publication PMC3608462 (Biochemistry, 2011).
Residues, ends and D or L forms follow the SMILES beside them.

Key:
CPAF = CPAF (Chlamydia trachomatis serovar D, UniProt O84866); format: biochemical
[1] = tested on: C. trachomatis LGV-L2 434-infected HeLa cells; settings: C. trachomatis LGV-L2 434-infected HeLa cells treated with lactacystin; cited from earlier work

CPAF, sequence (O84866 276-601): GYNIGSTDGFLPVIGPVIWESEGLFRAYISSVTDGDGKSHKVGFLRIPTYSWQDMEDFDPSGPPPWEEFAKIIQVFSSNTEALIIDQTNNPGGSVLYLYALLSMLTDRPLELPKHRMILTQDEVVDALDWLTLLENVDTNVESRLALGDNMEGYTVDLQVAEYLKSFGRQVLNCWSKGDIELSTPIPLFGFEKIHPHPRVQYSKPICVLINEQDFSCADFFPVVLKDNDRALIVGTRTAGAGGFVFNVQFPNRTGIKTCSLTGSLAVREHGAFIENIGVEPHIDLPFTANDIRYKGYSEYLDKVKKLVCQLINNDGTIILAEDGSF
CPAF, sequence (O84866 1-234): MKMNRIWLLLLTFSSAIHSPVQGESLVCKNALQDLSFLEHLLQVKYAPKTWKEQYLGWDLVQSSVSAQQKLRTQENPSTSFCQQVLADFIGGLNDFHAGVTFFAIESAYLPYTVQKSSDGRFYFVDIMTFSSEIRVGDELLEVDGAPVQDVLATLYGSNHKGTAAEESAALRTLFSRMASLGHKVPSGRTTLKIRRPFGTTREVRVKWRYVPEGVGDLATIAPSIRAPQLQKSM

Molecule: CSCC[C@H](NC(=O)[C@@H]1CCCN1C(=O)[C@H](CO)NC(=O)[C@H](Cc1ccc(O)cc1)NC(=O)[C@H](Cc1ccccc1)NC(=O)[C@H](CC(C)C)NC(=O)[C@@H](N)CO)C(=O)N[C@H](C(=O)N1CCC[C@H]1C(=O)N[C@@H](Cc1c[nH]cn1)C(=O)N[C@@H](Cc1ccccc1)C(=O)N[C@@H](Cc1c[nH]c2ccccc12)C(=O)N[C@@H](C)C(=O)N[C@@H](CCC(=O)O)C(=O)N[C@@H](CC(C)C)C(=O)N[C@@H](CCCNC(=N)N)C(=O)N[C@@H](CC(N)=O)C(=O)N[C@@H](Cc1c[nH]cn1)C(=O)N[C@@H](Cc1ccc(O)cc1)C(=O)N[C@@H](C)C(=O)N[C@H](C(=O)N[C@@H](CO)C(=O)NCC(=O)N[C@@H](CC(C)C)C(=O)N[C@@H](CCCCN)C(N)=O)[C@@H](C)O)C(C)C [peptide 3] (H-SLFYSPMVPHFWAELRNHYATSGLK-NH2)
- potency relative to lactacystin (fold more potent) (CPAF; ratio of CPAF IC50 values): 6 fold

Molecule: CC(=O)N[C@@H](CSC(=O)[C@]1([C@@H](O)C(C)C)NC(=O)[C@H](C)[C@@H]1O)C(=O)O [lactacystin]
- effect on vimentin in infected HeLa cells [1]: fiber oligermerization of vimentin

Molecule: H-NFALSHFRLPLSTYKEMPYVSHWAGRRRRRRRRR-NH2 [peptide 5]
- CPAF inhibitory activity in vitro (CPAF; in vitro): no CPAF inhibitory activity

Molecule: CSCC[C@H](NC(=O)[C@@H]1CCCN1C(=O)[C@H](CO)NC(=O)[C@H](Cc1ccc(O)cc1)NC(=O)[C@H](Cc1ccccc1)NC(=O)[C@H](CC(C)C)NC(=O)[C@@H](N)CO)C(=O)N[C@H](C(=O)N1CCC[C@H]1C(=O)N[C@@H](Cc1c[nH]cn1)C(=O)N[C@@H](Cc1ccccc1)C(=O)N[C@@H](Cc1c[nH]c2ccccc12)C(=O)N[C@@H](C)C(=O)N[C@@H](CCC(=O)O)C(=O)N[C@@H](CC(C)C)C(=O)N[C@@H](CCCNC(=N)N)C(=O)N[C@@H](CC(N)=O)C(=O)N[C@@H](Cc1c[nH]cn1)C(=O)N[C@@H](Cc1ccc(O)cc1)C(=O)N[C@@H](C)C(=O)N[C@H](C(=O)N[C@@H](CO)C(=O)NCC(=O)N[C@@H](CC(C)C)C(=O)N[C@@H](CCCCN)C(=O)N[C@@H](CCCNC(=N)N)C(=O)N[C@@H](CCCNC(=N)N)C(=O)N[C@@H](CCCNC(=N)N)C(=O)N[C@@H](CCCNC(=N)N)C(=O)N[C@@H](CCCNC(=N)N)C(=O)N[C@@H](CCCNC(=N)N)C(=O)N[C@@H](CCCNC(=N)N)C(=O)N[C@@H](CCCNC(=N)N)C(=O)N[C@@H](CCCNC(=N)N)C(N)=O)[C@@H](C)O)C(C)C [peptide 4] (H-SLFYSPMVPHFWAELRNHYATSGLKRRRRRRRRR-NH2)
- potency relative to inhibitor 3 (fold better) (CPAF; ratio of CPAF IC50 values): ~30 fold
- potency relative to lactacystin (fold more potent) (CPAF; ratio of CPAF IC50 values): ~200 fold
